Where “and” joins values, the source holds several entries; their conditions need not be identical. Identical values can stand only once.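 Briefly, cells in 96-well plates were exposed to five compound concentrations for 48 h, and endpoints were estimated by linear interpolation. GI50: concentration for 50% inhibition of growth. TGI marks complete inhibition of growth.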
What was measured:
Assay in all cases: growth of human tumour cells (NCI), 48 h
NCI-H522 lung = test system: NCI-H522 lung
A498 renal = test system: A498 renal
HT29 colon = test system: HT29 colon
OVCAR-3 ovarian = test system: OVCAR-3 ovarian
NCI-H460 lung = test system: NCI-H460 lung
OVCAR-5 ovarian = test system: OVCAR-5 ovarian
SK-MEL-28 melanoma = test system: SK-MEL-28 melanoma
COLO 205 colon = test system: COLO 205 colon
CAKI-1 renal = test system: CAKI-1 renal
RPMI-8226 leukemia = test system: RPMI-8226 leukemia

SMILES	GI50 (NCI-H522 lung)	TGI (NCI-H522 lung)	GI50 (A498 renal)	TGI (A498 renal)	GI50 (HT29 colon)	TGI (HT29 colon)	GI50 (OVCAR-3 ovarian) [µM]	TGI (OVCAR-3 ovarian)	GI50 (NCI-H460 lung) [µM]	TGI (NCI-H460 lung)	GI50 (OVCAR-5 ovarian) [µM]	TGI (OVCAR-5 ovarian) [µM]	GI50 (SK-MEL-28 melanoma)	TGI (SK-MEL-28 melanoma)	GI50 (COLO 205 colon) [µM]	TGI (COLO 205 colon)	GI50 (CAKI-1 renal)	TGI (CAKI-1 renal)	GI50 (RPMI-8226 leukemia) [µM]	TGI (RPMI-8226 leukemia)
Cc1cc2cc3cc(C)c(N)cc3[n+](C)c2cc1N	3.24 µM	9.31 µM	2.54 µM	8.76 µM	1.41 µM	6 µM	1.55	5.66 µM	1.01	3.26 µM	3.94	16	1.98 µM	4.63 µM	1.15	2.87 µM	3.44 µM	21.6 µM	0.615	4.57 µM
COc1cc(-n2cnc(-c3ccc(Cl)cc3)c2)cc(OC)c1OC	15.6 µM	34.3 µM	14.2 µM	31.6 µM	16.1 µM	32.8 µM	> 100	> 100 µM	18.6	36.8 µM	18.6	45.4	15.5 µM	29.7 µM	15.4	29.8 µM	24.9 µM	> 100 µM	14.7	32.2 µM
OCC1OC(n2cnc3c2NC=NC[C@H]3O)CC1O (some centres undefined)	> 588 µM	500 µM and > 588 µM	> 588 µM	481 µM and > 588 µM	469 µM and > 588 µM	474 µM and > 588 µM	> 588	500 µM and > 588 µM	> 588	480 µM and > 588 µM	> 588	> 588	> 588 µM	500 µM and > 588 µM	> 588	500 µM and > 588 µM	351 µM and > 588 µM	495 µM and > 588 µM	> 588	500 µM and > 588 µM
Brc1ccccc1C=NC12CC3CC(CC(C3)C1)C2	–	> 100 µM	–	> 100 µM	–	> 100 µM	–	> 100 µM	–	> 100 µM	–	> 100	–	> 100 µM	–	> 100 µM	–	> 100 µM	–	> 100 µM
Cc1nn(-c2ccccc2)c2nc3c(nc12)C1=NCCN1C(c1ccc(Cl)cc1)N3 (centres undefined)	2.83 µM	7.14 µM	4.01 µM	17.9 µM	2.5 µM	5.96 µM	2.63	7.18 µM	2.19	5.03 µM	11.4	24.3	1.78 µM	3.37 µM	1.84	3.36 µM	13.2 µM	27.3 µM	2.22	5.28 µM
O=C1c2cc([N+](=O)[O-])cc3cc([N+](=O)[O-])cc(c23)C(=O)N1CCCNCCNCCCN1C(=O)c2cc([N+](=O)[O-])cc3cc([N+](=O)[O-])cc(c23)C1=O	–	1.13 µM	–	13.4 µM	–	5.25 µM	–	2.35 µM	–	3.56 µM	–	6.68	–	2.11 µM	–	0.849 µM	–	8.4 µM	–	0.278 µM
CC1OC(n2c3ccccc3c3c4c(c5c6ccccc6[nH]c5c32)C(=O)N(CCN2CCOCC2)C4=O)CC(O)C1O (centres undefined)	1.52 µM	11.1 µM	5.13 µM	13.4 µM	1.92 µM	9.91 µM	4.36	12.2 µM	0.734	5.27 µM	5.36	12.9	5.61 µM	13.8 µM	1.22	7.81 µM	1.44 µM	6.37 µM	2.97	20.7 µM
CC1=NC(C(C)C)C(=O)O1 (centres undefined)	–	> 100 µM	–	> 100 µM	–	> 100 µM	–	> 100 µM	–	> 100 µM	–	> 100	–	> 100 µM	–	> 100 µM	–	> 100 µM	–	56 µM
O=C(O)c1ccccc1-c1ccccc1C(=O)Nc1ccc2c(c1)[nH]c(=O)c1ccccc12	–	> 100 µM	–	> 100 µM	–	> 100 µM	–	> 100 µM	–	> 100 µM	–	> 100	–	> 100 µM	–	> 100 µM	–	> 100 µM	–	> 100 µM
Cn1ccnc1C(=O)/C=C/c1ccc(CC(=O)Nc2ccc(F)cc2)cc1	3.34 µM	8.41 µM	5.65 µM	15.3 µM	2.27 µM	8.21 µM	0.962	3.67 µM	1.8	9.89 µM	4.36	10.9	4.47 µM	9.95 µM	4.39	10.3 µM	3.14 µM	> 25 µM	1.02	5.44 µM
CCN(CC)CCCC(Cc1ccccc1)Nc1c2ccc(Cl)cc2nc2ccc(OC)cc12 (centres undefined)	1.81 µM	3.57 µM	1.88 µM	5.09 µM	1.41 µM	3.57 µM	2.88	12.2 µM	2.44	5.92 µM	2.67	12.7	1.84 µM	3.59 µM	1.61	3.37 µM	2.1 µM	5.9 µM	2.08	5.26 µM
N#CCCSC(=S)C1CCCC1=N (centres undefined)	–	> 100 µM	–	> 100 µM	–	> 100 µM	–	> 100 µM	–	> 100 µM	–	> 100	–	> 100 µM	–	> 100 µM	–	> 100 µM	–	> 100 µM
CC(C)n1c(=O)n(C)c2cnc3cc(F)c(-c4ccc(OCCCN5CCCCC5)nc4)cc3c21	18.6 µM	49.6 µM	3.78 µM	14 µM	8.5 µM	37.2 µM	13.7	49.5 µM	11.3	29.4 µM	15.7	55.7	13.5 µM	32.4 µM	7.39	23.4 µM	22.9 µM	> 100 µM	3.22	14.6 µM
CCC(c1ccc2cc(O)ccc2c1)C(C)(C)C(=O)O (centres undefined)	–	> 100 µM	–	> 100 µM	–	> 100 µM	–	> 100 µM	–	> 100 µM	–	> 100	–	> 100 µM	–	> 100 µM	–	> 100 µM	–	> 100 µM
CC(=O)OC1CC2C(C)(C)C(=O)C=C[C@]2(C)C2CCC3(C)C(c4ccoc4)[C@@H](O)[C@H]4O[C@]43[C@]12C (some centres undefined)	–	28 µM	–	49.7 µM	–	40.3 µM	–	31.8 µM	–	36.5 µM	–	50	–	40.5 µM	–	37.6 µM	–	45.6 µM	–	67.1 µM
COC(=O)C1=C(CS(=O)c2ccc([N+](=O)[O-])cc2[N+](=O)[O-])ON(C)C1c1ccccc1 (centres undefined)	–	32.1 µM	–	> 100 µM	–	55.2 µM	–	> 100 µM	–	> 100 µM	–	> 100	–	> 100 µM	–	> 65 µM	–	> 60.8 µM	–	46 µM
Cc1[nH]nc2ccc3nc(-c4ccc5[nH]ncc5c4)c4c(c3c12)CCCC4	0.446 µM	6.01 µM	0.28 µM	1.8 µM	1.51 µM	12.5 µM	2.07	10.6 µM	0.832	11.2 µM	2.53	13.9	2.09 µM	9.54 µM	1.09	10.8 µM	0.535 µM	12 µM	1.51	6.65 µM
Cc1cc(C)c2nc3nc(C)cc(C)c3c(N)c2c1	5.46 µM	22.6 µM	4.67 µM	17.8 µM	2.49 µM	13.6 µM	9.04	39.9 µM	3.15	11 µM	4.3	29.5	12.6 µM	27 µM	2.78	11.8 µM	1.83 µM	6.12 µM	4.55	24.8 µM
O=C(CN1C(=O)S/C(=C\C(Cl)=C\c2ccccc2)C1=O)NCCc1ccc(O)cc1	1.96 µM	5.77 µM	1.65 µM	7.75 µM	3.02 µM	12.3 µM	1.69	3.27 µM	2	6.12 µM	2.31	5.66	1.73 µM	3.44 µM	2.31	5.68 µM	1.78 µM	3.76 µM	1.74	6.96 µM
O=C(O)CP(=O)(O)O	–	> 100 µM	–	> 100 µM	–	> 100 µM	–	> 100 µM	–	> 100 µM	–	> 100	–	> 100 µM	–	> 100 µM	–	> 100 µM	–	> 100 µM
CCCCCCCCCCCCCCCCCC(=O)OCC(COC1OC(CS(=O)(=O)O)C(O)C(O)C1O)OC(=O)CCCCCCCCCCCCCCCCC (centres undefined)	–	> 100 µM	–	> 100 µM	–	> 100 µM	–	> 100 µM	–	> 100 µM	–	> 100	–	> 100 µM	–	> 100 µM	–	> 100 µM	–	> 100 µM
CSc1nc(C)c(Br)c(=O)n1C1OC(COC(C)=O)C(OC(C)=O)C(OC(C)=O)C1OC(C)=O (centres undefined)	> 100 µM and 30.9 µM	> 100 µM	29.4 µM and 75.4 µM	> 100 µM	–	> 100 µM	–	> 100 µM	–	> 100 µM	–	> 100	> 100 µM and 21 µM	> 100 µM and 57 µM	–	> 100 µM	> 100 µM and 33.9 µM	> 100 µM and 83.9 µM	–	> 100 µM
O=C1NC(c2c(Cl)cccc2Cl)Nc2ccccc21 (centres undefined)	–	> 100 µM	–	> 100 µM	–	> 100 µM	–	> 100 µM	–	> 100 µM	–	> 100	–	> 100 µM	–	> 100 µM	–	76.7 µM	–	> 100 µM
CCN(CC)CCCCNc1ncc2cc(-c3cc(OC)cc(OC)c3)c(NC(=O)NC(C)(C)C)nc2n1	6.45 µM	18.4 µM	0.0209 µM	0.097 µM	3.31 µM	13.9 µM	11.9	25 µM	6.85	20.8 µM	15.5	31.4	4.67 µM	12.4 µM	8.08	22.1 µM	3.99 µM	17 µM	4.92	27.9 µM

Reference: PubChem BioAssay (NCI)
